Experimental data taken from patent US10669287B2, “Curcumin-boron complex and pharmaceutical containing same” (JAPAN SCIENCE AND TECHNOLOGY AGENCY, priority 2016, dated 2020).
Like-named read-outs stand apart in the source and are kept apart here.

Key:
PC 12 cells [1] = assay: Cytotoxicity under light irradiation, WST-8 cell viability, Test Example 2; format: cell-based, rat; conditions: LED 660 nm, 10 mW, 5 minutes, then 48 hours
Experimental: A culture medium for rat adrenal medulla-derived pheochromocytoma PC 12 cells (purchased from RIKEN, Japan) seeded on a poly-D-lysine-coated 96-well plate was replaced with 75 μL of a Dulbecco's modified Eagle's medium containing 0.1% horse serum, and the culture was incubated in a 5% CO2 atmosphere at 37° C. for 1 day, and 25 μL of a phosphate buffer saline (pH 7.4) containing a inventive compound was then added thereto. Thereafter, the mixed solution was incubated under LED irradiation (wavelength: 660 nm, 10 mW) (without light irradiation for dark) at 37° C. for 5 minutes. Further, the cell culture plate containing the reaction solution was incubated in a 5% CO2 atmosphere at 37° C. for 48 hours. Finally, the Cell Count Reagent SF (10 μL: purchased from NACALAI TESQUE, INC.) containing WST-8 was added, and the culture was incubated in a 5% CO2 atmosphere at 37° C. for 3 hours, and thereafter the cell viability was determined from the absorbance at 450 nm (reference wavelength: 655 nm).

[2] = Maximum wavelength λmax of photocatalysts; format: physicochemical
[3] = Stability of catalyst in neutral phosphate buffer without or under light irradiation (HPLC), Test Example 5; format: physicochemical; conditions: under light irradiation (660 nm)
Experimental: A neutral phosphate buffer containing a catalyst was incubated without light irradiation or under light irradiation (660 nm), and thereafter ethanol containing benzyl alcohol (as an internal standard) was added thereto, and analysis was performed by using HPLC.

Aβ1-42 [4] = biological target: T1, Aβ1-42 (Homo sapiens, UniProt P05067); assay: Degree of oxygenation of pre-aggregated Aβ1-42 (MALDI-TOF MS), Test Example 10; format: biochemical; conditions: pre-aggregated Aβ1-42 20 μM, catalyst 2 μM, 37° C., 30 minutes; for Degree of oxygenation (%) of Aβ42 (λ = 660 nm): phosphate buffer pH 7.4, 660 nm; for Degree of oxygenation (%) of Aβ42 (λ = 780 nm): phosphate buffer pH 7.4, 780 nm (14 mW)
T1 construct: phosphate buffer (pH 7.4)/cell culture solution (containing 0.1% horse serum) (1:3) containing Aβ1-42 (10 μM)
Experimental: Aβ1-42 isopeptide (concentration: 250 μM in 0.1% aqueous solution of trifluoroacetic acid), angiotensin IV (200 μM aqueous solution), Met-enkephalin (200 μM aqueous solution), and somatostatin (200 μM aqueous solution) were added to a phosphate buffer or phosphate buffer saline (pH 7.4) (with 0.1 M aqueous solution of sodium hydroxide, as necessary) so that a final peptide concentration of 20 μM or 40 μM (pH 7.4) was reached. Before being subjected to oxygenation reaction, the Aβ1-42 solution was incubated at 37° C. for 1 to 3 hours. The phosphate buffer containing 40 μM of Aβ was diluted with a Dulbecco's modified Eagle's medium (DMEM, Life Technologies) containing 0.1% horse serum and buffered with 25 mM of 4-(2-hydroxyethyl)-1-piperazineethanesulfonic acid (HEPES).
Solutions of the compounds with a final concentration of 2 μM were used for evaluation of oxygenation of Aβ1-42. Solutions of the compounds with a final concentration of 5 μM were used for evaluation of peptide selectivity. Each mixture was subjected to light irradiation with an LED (wavelength: 500, 660, or 780 nm) at a distance of approximately 5 to 10 cm at room temperature. A control group without light irradiation was additionally prepared. Reaction was analyzed through monitor analysis with a MALDI-TOF MS. Degree of oxygenation was determined as a ratio: degree of oxygenation (%)=(total of MS intensities for n[O] adducts)/(MS intensity for native+total of MS intensities for n[O] adducts)×100. Aliquots of each reaction solution were desalted with a ZipTip U-C18 (Merck Millipore), as necessary, before mass spectrometry.
a: A phosphate buffer (pH 7.4) solution containing pre-aggregated Aβ1-42 (20 μM, incubated at 37° C. for 3 hours) and a catalyst (2 μM) was subjected to light irradiation (wavelength: 660 nm) at 37° C. for 30 minutes. Thereafter, the reaction mixture was analyzed by using a MALDI-TOF MS.
a: A phosphate buffer (pH 7.4) containing pre-aggregated Aβ1-42 (20 μM, obtained through incubation at 37° C. for 3 hours) and a catalyst (2 μM) were subjected to light irradiation at 780 nm (14 mW) at 37° C. for 30 minutes. The reaction mixture was analyzed by using a MALDI-TOF MS.

PC 12 cells [5] = format: cell-based
Experimental: Rat pheochromocytoma PC 12 cells were suspended with DMEM containing 5% horse serum and 10% fetal bovine serum, seeded in a poly-D-lysine-coated 96-well plate at a concentration of 10,000 cells per well, and incubated in a 5% carbon dioxide atmosphere at 37° C. for 3 days. After the solvent was removed, the cells were washed with 150 μL of serum-free DMEM, and DMEM (75 μL) containing 0.1% horse serum was added thereto. Thereafter, the 96-well plate was incubated in a 5% carbon dioxide atmosphere at 37° C. for 1 day for use in oxygenation reaction. In oxygenation reaction, the compound E (100 μM dimethyl sulfoxide solution) was added to a phosphate buffer saline containing Aβ (aggregated in advance for 3 hours, 40 μM) and 25 μL of the above cell solution (final concentration of Aβ: 10 μM, final concentration of compound E: 1 μM). The mixture was irradiated with an LED (wavelength: 780 nm) at a distance of approximately 5 cm at 37° C. for 5 minutes. The cells were incubated in a 5% carbon dioxide atmosphere at 37° C. for 48 hours. The cell viability was measured by using the Cell Count Reagent SF (NACALAI TESQUE, INC., Kyoto, Japan) with WST-8 (2-(2-methoxy-4-nitrophenyl)-3-(4-nitrophenyl)-5-(2,4-disulfophenyl)-2H-tetrazolium).
b: LC50 (dark) indicates the toxicity of a compound itself, and LC50 (light) indicates the phototoxicity of a compound. The PC 12 cells were placed in dark or subjected to photocatalytic treatment under light irradiation (wavelength: 660 nm), and incubated at 37° C. for 5 minutes, and then in a 5% carbon dioxide atmosphere at 37° C. for 48 hours, for which the cell viability was analyzed (n=5, mean±SEM).
b: The PC 12 cells were treated together with a photocatalyst (1 μM) at 37° C. for 5 minutes in dark or under light irradiation (wavelength: 780 nm), and thereafter the cell viability was analyzed (n=3, mean±SEM).

Aβ1-42 [6] = biological target: T1, Aβ1-42; assay: In vitro oxygenation experiment using Aβ1-42 as a substrate (MALDI-TOF MS), Test Example 1; format: biochemical; conditions: test compound 1 μM, Aβ1-42 10 μM, 37° C.
Experimental: An in vitro oxygenation experiment using Aβ1-42 as a substrate was conducted to confirm that each of the inventive compounds actually have Aβ oxygenation activity. A test compound (1 μM in each case) was added to phosphate buffer (pH 7.4)/cell culture solution (containing 0.1% horse serum) (1:3) containing Aβ1-42 (10 μM), and incubated under LED irradiation (wavelength: 660 nm, 730 nm) at 37° C., and then the reaction was tracked by using a mass spectrometer (MALDI-TOF MS). The native Aβ1-42 and the Na^+ adduct were mainly observed before light irradiation. After light irradiation, an ion peak indicating the presence of the oxygenated form was observed over time (FIG. 1, FIG. 2).

Aβ1-42 [7] = biological target: T1, Aβ1-42; assay: Oxygenation under mouse skin, Test Example 7; format: in vivo; conditions: microtube with Aβ1-42 20 μM aggregated 3 hours, implanted in back skin, LED 780 nm, 30 minutes
Experimental: A microtube containing a phosphate buffer containing Aβ1-42 (20 μM, aggregated in advance for 3 hours) and the compound E or a compound 3 [9-(6-bromo-3-methyl-1,3-benzotriazol-3-ium-2-yl)-julolidine] was implanted in the back skin of a wild mouse, and light irradiation with an LED lamp was performed from the outside of the mouse body at a wavelength of 780 nm for 30 minutes (FIG. 10). As a control experiment, another microtube containing the same components (Aβ1-42 (20 μM, aggregated in advance for 3 hours) and the compound E or the compound 3) was directly subjected to light irradiation outside of the mouse body. The reaction mixture was analyzed by using a MALDI-TOF MS, and then subjected to ZipTip treatment for analysis. The percentage of oxygenation ratio was calculated from the percentage of oxygenation ratio under the skin and the oxygenation ratio outside of the skin “[oxygenation ratio under mouse skin/oxygenation ratio outside of mouse skin]×100”.

T1 sequence (P05067 672-713): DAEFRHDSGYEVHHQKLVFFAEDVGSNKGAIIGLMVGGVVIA

SMILES	toxicity under light irradiation (ranking) (PC 12 cells [1])	Maximum wavelength λmax (nm) ([2]; Table 1)	Maximum wavelength λmax (nm) ([2]; Table 2)	stability of catalyst (ranking) [3]	Degree of oxygenation (%) of Aβ42 (λ = 660 nm) (Aβ1-42 [4])	Degree of oxygenation (%) of Aβ42 (λ = 780 nm) (Aβ1-42 [4]) [%]	other results
CN(C)c1ccc(/C=C/C2=C(Br)C(/C=C/c3ccc4c(c3)CCCN4CCCCCC(=O)O)=[O+][B-](F)(C(F)(F)C(F)(F)F)O2)cc1 (stereo not drawn) [Compound J]	higher in the order of the compound J, the compound K, and the compound L	622	620	higher in the order of BFCF3 (compound K)<BFCF2CF3 (compound J)	79%	41	–
CN(C)c1ccc(/C=C/C2=C(Br)C(/C=C/c3ccc4c(c3)CCCN4CCCCCC(=O)O)=[O+][B-](F)(F)O2)cc1 [Compound L]	higher in the order of the compound J, the compound K, and the compound L	623	–	stability was the lowest	73%	–	CC50 (PC 12 cells [5]): 24 nM
CN(C)c1ccc(/C=C/C2=CC(=C/C=C3C=CC(=[N+](C)C)C=C3)/O[B-](F)(F)O2)cc1 [CRANAD-2, (T-4)-[(1E,6E)-1,7-bis[4-(dimethylamino)phenyl]-1,6-heptadiene-3,5-dionato-κO^3,κO^5]difluoroboron, reference compound]	–	579	–	–	trace	–	–
O=C(O)CCCCCN1CCCc2cc(/C=C/C3=[O+][B-](F)(C(F)(F)C(F)(F)C(F)(F)F)OC(/C=C/c4cc5c6c(c4)CCCN6CCC5)=C3Br)ccc21 (stereo not drawn) [Compound S]	–	–	633	–	–	37	CC50 (PC 12 cells [5]): > 10000 nM
O=C(O)CCCCCN1CCCc2cc(/C=C/C3=[O+][B-](F)(C(F)(F)F)OC(/C=C/c4cc5c6c(c4)CCCN6CCC5)=C3Br)ccc21 (stereo not drawn) [Compound I]	–	–	645	stability was higher	–	52	CC50 (PC 12 cells [5]; PC 12 cells in dark, 37° C., 5 minutes, n=3, mean±SEM, Table 2, read-out: LC50 (dark)): > 10000 nM; CC50 (PC 12 cells [5]; PC 12 cells, light irradiation 780 nm, 37° C., 5 minutes, n=3, mean±SEM, Table 2, read-out: LC50 (light)): 1670 nM; oxygenation of Aβ1-42 under light irradiation (Aβ1-42 [6]; LED irradiation at both 660 nm and 730 nm): oxygenation of the Aβ proceeded
CN(C)c1ccc(/C=C/C2=C(I)C(/C=C/c3ccc4c(c3)CCCN4CCCCCC(=O)O)=[O+][B-](F)(C(F)(F)F)O2)cc1 (stereo not drawn) [M]	iodine provides more reduced toxicity than in the case of bromine	–	–	–	–	–	oxygenation of Aβ1-42 under light irradiation (Aβ1-42 [6]; LED irradiation at 730 nm): oxygenation of the Aβ proceeded
C[n+]1c2ccc(Br)cc2nn1-c1cc2c3c(c1)CCCN3CCC2 [Compound 3, 9-(6-bromo-3-methyl-1,3-benzotriazol-3-ium-2-yl)-julolidine, reference compound]	–	456	–	–	trace	–	percentage of oxygenation ratios [oxygenation ratio under mouse skin/oxygenation ratio outside of mouse skin]×100 (Aβ1-42 [7]): 12%
